The values below come from PubChem BioAssay (NCI).

Values joined by “and” are separate entries in the source; they are usually repeats but may differ in a detail not shown here. Identical values can stand only once.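 1) Cells in 96-well plates. 2) Compound, 48 h, 5 concentrations. 3) Linear interpolation between surrounding doses. 4) Unreached endpoint = highest concentration. GI50 is the concentration that inhibits growth by half. TGI: total growth inhibition.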

Some test systems named below: MCF7 breast; MDA-MB-435; HS 578T breast; DU-145 prostate; BT-549 breast.
Common to all, as to test: inhibition of tumour cell growth, NCI panel, 48 h

As for `COc1cc(-n2cc(-c3ccccc3)[nH]c2=O)cc(OC)c1OC`, the GI50 in the assay on MCF7 breast is 44.9 µM; with MDA-MB-435 it was 76.3 µM; in the assay on HS 578T breast, 29.8 µM. In addition, the TGI in the assay on MCF7 breast is greater than 100 µM; in the assay on MDA-MB-435, greater than 100 µM; with HS 578T breast, 85.4 µM.
With `NCCCOc1cc2ccccc2cc1C(=O)Nc1ccc(Cl)cc1OC(=O)c1cc2ccccc2cc1OCCCN`, the GI50 in the assay on MCF7 breast is 0.173 µM; in the assay with MDA-MB-435 it was 0.961 µM; in the assay on DU-145 prostate, 0.303 µM; in the assay with BT-549 breast, 1.66 µM. Moreover, the TGI was 0.332 µM with MCF7 breast, 3.96 µM with MDA-MB-435, 0.781 µM with DU-145 prostate and 3.1 µM in the assay on BT-549 breast.
With `COc1cccc(/C=C/c2nc3c(cnn3-c3ccccc3)c(=O)[nH]2)c1`, the GI50 with MCF7 breast is 0.467 µM; with MDA-MB-435, 0.447 µM; with DU-145 prostate, greater than 100 µM; in the assay on HS 578T breast, 13.7 µM; with BT-549 breast, greater than 72.9 µM. The TGI is greater than 100 µM with MCF7 breast; greater than 72.4 µM with MDA-MB-435; greater than 100 µM in the assay with DU-145 prostate; greater than 100 µM with HS 578T breast; greater than 100 µM in the assay with BT-549 breast.
As for `O=[N+]([O-])c1cccc(-c2nc(-c3ccc(Cl)cc3Cl)cn2-c2ccccc2)c1`, the GI50 in the assay with MCF7 breast is 0.909 µM; in the assay with MDA-MB-435, 0.763 µM; in the assay with DU-145 prostate, 0.574 µM; with HS 578T breast, 0.428 µM; in the assay on BT-549 breast it was 0.0695 µM. Besides, the TGI in the assay with MCF7 breast was 4.02 µM; in the assay with MDA-MB-435 it was 2.71 µM; with DU-145 prostate it was 1.19 µM; in the assay on HS 578T breast, 1.15 µM; in the assay with BT-549 breast it was greater than 22.1 µM.
For `N#CC1=C(N)NC(=S)NC1c1ccc(-c2ccc(-c3nc4ccccc4o3)cc2)s1` (stereo not drawn), the GI50 in the assay on MCF7 breast is 6.7 µM; with MDA-MB-435 it was 16.5 µM; in the assay with DU-145 prostate, 17.6 µM; with HS 578T breast, 16.1 µM; with BT-549 breast it was 17.5 µM. Also, the TGI with MCF7 breast is 19.2 µM; in the assay with MDA-MB-435 it was 48.5 µM; with DU-145 prostate, greater than 50 µM; with HS 578T breast it was 45.1 µM; in the assay with BT-549 breast it was 47.6 µM.
For `Nc1ccccc1C#C/C=C\C#CC#C/C=C\C#Cc1ccccc1N`, the GI50 was 4.6 µM in the assay on MCF7 breast; 2.85 µM in the assay on MDA-MB-435; 2.97 µM with DU-145 prostate; 12.4 µM in the assay on HS 578T breast; 5.03 µM with BT-549 breast. Besides, the TGI was greater than 100 µM in the assay with MCF7 breast; 9.72 µM with MDA-MB-435; 13.5 µM in the assay on DU-145 prostate; 56.7 µM in the assay with HS 578T breast; 25.9 µM with BT-549 breast.
Take `CCOC(=O)Nc1nc2ccccc2[nH]1`: the GI50 was 3.63 µM and 3.15 µM with MCF7 breast; 1.28 µM and 0.674 µM in the assay with MDA-MB-435; 8.58 µM and 4.18 µM with DU-145 prostate; 4.3 µM and 3.48 µM in the assay with HS 578T breast; 6.03 µM with BT-549 breast. The TGI with MCF7 breast is greater than 100 µM; with MDA-MB-435, 4 µM; with DU-145 prostate, greater than 100 µM; in the assay with HS 578T breast, greater than 100 µM; with BT-549 breast it was greater than 100 µM.
With `C=CC(COC(=O)C(C)(C)OC(C)=O)c1ccc(OC(=O)C(C)C)c(OC)c1` (stereo not drawn), the TGI in the assay with MCF7 breast was greater than 22.8 µM; in the assay on MDA-MB-435 it was 27.8 µM; in the assay on DU-145 prostate it was 25.9 µM; in the assay on HS 578T breast it was 50.8 µM; in the assay with BT-549 breast it was 22.5 µM.
Consider `Cc1ccc(Nc2cc(Cl)c([N+](=O)[O-])cc2[N+](=O)[O-])cc1`, for which the GI50 with MCF7 breast was 2.7 µM; with MDA-MB-435, 3.07 µM; in the assay with DU-145 prostate it was 2.95 µM; with HS 578T breast, 7.63 µM; in the assay with BT-549 breast it was 3.72 µM. The TGI in the assay on MCF7 breast was 7.68 µM; with MDA-MB-435, 10.8 µM; in the assay with DU-145 prostate, 7.55 µM; in the assay on HS 578T breast, greater than 24.7 µM; in the assay with BT-549 breast, 11.8 µM.
For the molecule `Cc1cc(-c2nnc(/C=C/c3ccc4c(c3)OCO4)o2)n[nH]1`, the GI50 is 15.1 µM with MCF7 breast; 0.915 µM in the assay with MDA-MB-435; 9.17 µM in the assay on DU-145 prostate; 9.64 µM in the assay on HS 578T breast; 6.78 µM in the assay with BT-549 breast. Moreover, the TGI in the assay with MCF7 breast was greater than 50 µM; with MDA-MB-435, 2.52 µM; in the assay on DU-145 prostate, 29.4 µM; with HS 578T breast, 47 µM; with BT-549 breast, 39.3 µM.
As to `CS(=O)(=O)Nc1cc(-c2ccc3ncnc(Nc4ccc(F)c(Cl)c4)c3c2)cnc1Cl`, the GI50 was 0.216 µM and 0.227 µM with MCF7 breast; 0.605 µM and 0.537 µM in the assay on MDA-MB-435; 0.738 µM and 0.766 µM with DU-145 prostate; 0.182 µM and 0.19 µM in the assay on HS 578T breast; 0.307 µM and 0.287 µM in the assay with BT-549 breast. The TGI with MCF7 breast was 11.4 µM and 11.8 µM; in the assay with MDA-MB-435 it was 7.03 µM and 4.96 µM; in the assay on DU-145 prostate it was 11.1 µM and 13.6 µM; in the assay with HS 578T breast it was 2.69 µM; with BT-549 breast it was 3.36 µM and 2.68 µM.
For the molecule `COc1ccc(/C(C)=N/NC(=O)CSc2nc3ccccc3c(=O)n2CCc2ccc(S(N)(=O)=O)cc2)cc1`, the GI50 with MCF7 breast is 2.95 µM; with DU-145 prostate, 1.77 µM; with HS 578T breast, 2.24 µM; with BT-549 breast, 1.66 µM. For the same molecule, the TGI in the assay on MCF7 breast came out at 11.2 µM; with DU-145 prostate, 3.55 µM; with HS 578T breast it was 6.2 µM; with BT-549 breast, 3.74 µM.
`C=C1C(=O)OC2C1C(OC(=O)/C(C)=C/C)CC(O)(CCl)C1C(O)C=C(C)C21O` (stereo not drawn): the TGI in the assay on MCF7 breast was 16.7 µM; with MDA-MB-435, greater than 62.1 µM; in the assay on DU-145 prostate it was 30.7 µM; in the assay on HS 578T breast, greater than 100 µM; with BT-549 breast it was 23.4 µM.
As to `O=C1CC[C@H](N2Cc3c(OCc4ccc(CN5CCOCC5)cc4)cccc3C2=O)C(=O)N1`, the GI50 in the assay on MCF7 breast was greater than 100 µM; with MDA-MB-435, greater than 100 µM; with DU-145 prostate, greater than 100 µM; in the assay on HS 578T breast it was greater than 100 µM; in the assay with BT-549 breast, 98.9 µM. In addition, the TGI with MCF7 breast, in the assay with MDA-MB-435, in the assay with DU-145 prostate, in the assay with HS 578T breast and with BT-549 breast was greater than 100 µM each time.
Take `Cc1cc(C(=O)Nc2n[nH]c3ccccc23)n[nH]1`: the GI50 with MCF7 breast, in the assay on MDA-MB-435, with DU-145 prostate, with HS 578T breast and with BT-549 breast was greater than 100 µM in each case. Also, the TGI in the assay with MCF7 breast, in the assay on MDA-MB-435, in the assay with DU-145 prostate, in the assay with HS 578T breast and in the assay with BT-549 breast was greater than 100 µM throughout.
With `Cc1ccc(C(=O)NCCCOc2ccc(N3C(N)=NC(N)=NC3(C)C)cc2Cl)cc1S(=O)(=O)F`, the GI50 with MCF7 breast was 22.4 µM; in the assay on MDA-MB-435, 56.7 µM; in the assay with DU-145 prostate, greater than 100 µM; in the assay on HS 578T breast, greater than 100 µM; in the assay on BT-549 breast it was 43.1 µM. Moreover, the TGI in the assay on MCF7 breast, in the assay on MDA-MB-435, in the assay with DU-145 prostate, in the assay with HS 578T breast and with BT-549 breast was greater than 100 µM in each case.
Consider `Nc1c(C(=O)Nc2ccccn2)sc2nc3c(cc12)C(O)CCC3` (stereo not drawn), for which the GI50 with MCF7 breast is 1.02 µM; with DU-145 prostate, 1.94 µM; in the assay with HS 578T breast, 2.07 µM; with BT-549 breast, 3.47 µM. In addition, the TGI in the assay with MCF7 breast, with DU-145 prostate, in the assay on HS 578T breast and in the assay with BT-549 breast was greater than 50 µM each time.
As for `COc1ccc(C(C)c2cc(OC)c(OC)c(OC)c2)cc1` (stereo not drawn), the GI50 in the assay on DU-145 prostate is 0.198 µM; in the assay on HS 578T breast it was 0.244 µM; in the assay with BT-549 breast, 0.223 µM. The TGI in the assay with DU-145 prostate, in the assay on HS 578T breast and in the assay with BT-549 breast was greater than 50 µM each time.
In the case of `Nc1ncnc2c1ncn2C1OC(COS(N)(=O)=O)C(O)C1O` (stereo not drawn), the GI50 in the assay with MDA-MB-435 was 0.00184 µM and 0.018 µM; in the assay with DU-145 prostate, less than 0.001 µM; in the assay with BT-549 breast it was 0.00266 µM and 0.0266 µM. In addition, the TGI in the assay with MDA-MB-435 was 0.00356 µM and 0.0355 µM.
In the case of `CC(=O)Oc1ccc2c(c1)[C@@]1(C)CCCC(C)(C)[C@@H]1CC2`, the GI50 is 34.6 µM in the assay on MCF7 breast, 16.8 µM in the assay with MDA-MB-435, 24.7 µM in the assay with HS 578T breast and 36.5 µM in the assay on BT-549 breast. Further, the TGI was greater than 100 µM in the assay on MCF7 breast, 40 µM in the assay with MDA-MB-435, 56.5 µM with HS 578T breast and greater than 100 µM with BT-549 breast.
`[N-]=[N+]=NCCCn1c2c(c3ccc([N+](=O)[O-])cc3c1=O)C(=O)c1cc3c(cc1-2)OCO3`: the GI50 was 0.158 µM in the assay on MCF7 breast, less than 0.042 µM with MDA-MB-435, 0.0342 µM in the assay on DU-145 prostate and less than 0.01 µM in the assay with BT-549 breast. Also, the TGI with MCF7 breast is 7.68 µM; with MDA-MB-435, 1.49 µM; in the assay on DU-145 prostate it was 0.271 µM; with BT-549 breast, less than 0.01 µM.
For the molecule `CCOc1ccccc1NC(=O)C(=O)C(/C(=N/N)C(=O)OC)c1nc2ccc([N+](=O)[O-])cc2[nH]c1=O` (stereo not drawn), the TGI with MCF7 breast, in the assay with MDA-MB-435, in the assay with HS 578T breast and with BT-549 breast was greater than 100 µM in each case.
Consider `N#Cc1cnc2cc(OC[C@@H](O)CO)c(NC(=O)C3CCCC3)cc2c1Nc1ccc(OCc2cccc(F)c2)c(Cl)c1`, for which the GI50 in the assay on MDA-MB-435 was 1.82 µM; in the assay on DU-145 prostate, 0.712 µM; with HS 578T breast, 0.265 µM; in the assay with BT-549 breast it was 1.09 µM. The TGI with MDA-MB-435 came to 7.71 µM; in the assay with DU-145 prostate it was 1.42 µM; with HS 578T breast, 1.43 µM; with BT-549 breast, 2.89 µM.
